Data published in ChEMBL document CHEMBL4831538, “Repositioning of the Anthelmintic Drugs Bithionol and Triclabendazole as Transthyretin Amyloidogenesis Inhibitors” (J Med Chem, 2021).
pIC50, pKd: −log10 of the molar value. Calls of active or inactive are those of the source. The rule behind the calls is not given here.

Key:
[1] = molecular target: T1, Transthyretin (Homo sapiens, UniProt P02766, V50M); assay: Binding affinity to TTR V30M mutant (unknown origin) expressed in Escherichia coli incubated for 60 mins by tryptophan intrinsic fluorescence method; settings: read-out: Kd(app)
[2] = test system: Transthyretin (Homo sapiens), P02766 [V50M]; assay: (§1) Stabilization of TTR V30M mutant (unknown origin) assessed as acid-mediated protein aggregation inhibition ratio incubated for 1 week by absorbance method; settings: time 1.0 weeks
[3] = test system: Transthyretin (Homo sapiens), P02766 [V50M]; assay: Stabilization of TTR V30M mutant (unknown origin) assessed as suppression of TTR tetramer dissociation at 1 to 10 uM incubated for 9 days by glutaraldehyde cross-linking assay based SDS-PAGE analysis; settings: dose 1-10 µM, time 9.0 day
[4] = test system: Transthyretin (Homo sapiens), P02766 [V50M]; assay: Stabilization of TTR V30M mutant (unknown origin) assessed as suppression of TTR tetramer dissociation at 3 uM incubated for 9 days by glutaraldehyde cross-linking assay based SDS-PAGE analysis relative to control; settings: time 9.0 day
[5] = molecular target: T2, Transthyretin (Homo sapiens, UniProt P02766); assay: Stabilization of wild type TTR (unknown origin) expressed in Escherichia coli assessed as reduction in methanol-induced aggregation at 50 uM incubated for 60 min by absorbance method
[6] = test system: Transthyretin (Homo sapiens), P02766 [V142I]; assay: Stabilization of TTR V142I mutant (unknown origin) expressed in Escherichia coli assessed as reduction in trypsin-induced aggregation incubated for 3 to 4 days by absorbance method; settings: time 3-4 day
[7] = molecular target: T1, Transthyretin; assay: as §1
[8] = molecular target: T2, Transthyretin; assay: Stabilization of wild type TTR (unknown origin) expressed in Escherichia coli assessed as reduction in methanol-induced aggregation incubated for 60 min by absorbance method
[9] = molecular target: T1, Transthyretin; assay: Binding affinity to TTR V30M mutant (unknown origin) by isothermal titration calorimetry

SMILES | pKd [1] | Activity [2] | Activity [3] | Activity [4] [%] | Activity [5] | Activity [6] | pIC50 [7] | pIC50 [8] | pKd [9]
CC(C)c1ccc2oc3nc(N)c(C(=O)O)cc3c(=O)c2c1 [AMLEXANOX] | 4.70 | – | – | – | – | – | – | – | –
O=C(O)c1ccc2nc(-c3cc(Cl)cc(Cl)c3)oc2c1 | – | Dose-Dependent Effect | Active | 100 | Active | Dose-Dependent Effect | – | – | –
Cc1ccc(C(=O)c2cc(O)c(O)c([N+](=O)[O-])c2)cc1 | – | Dose-Dependent Effect | Active | 100 | – | Dose-Dependent Effect | – | – | –
CSc1nc2cc(Cl)c(Oc3cccc(Cl)c3Cl)cc2[nH]1 [TRICLABENDAZOLE] | – | Dose-Dependent Effect | Active | 100 | Active | Dose-Dependent Effect | 5.46 | – | –
CC(C)=COc1ccc(/C=C/C(O)c2ccc(OC=C(C)C)cc2OCC(=O)O)cc1 (stereo not drawn) | 5.19 | – | – | – | – | – | – | – | –
Oc1c(Cl)cc(Cl)cc1Sc1cc(Cl)cc(Cl)c1O [BITHIONOL] | 5.96 | Dose-Dependent Effect | Active | 100 | – | Dose-Dependent Effect | 5.62 | 5.52 | 7.21
O=C(O)c1cc(-c2ccc(F)cc2F)ccc1O | – | Dose-Dependent Effect | Active | – | – | – | – | – | –
Oc1ccc(Cl)cc1Cc1cc(Cl)ccc1O | – | – | Active | – | – | – | – | – | –
